Data as given in patent US4108994A, “5-Thiazole-methane-amines, and their use as antilipolytics” (Roussel Uclaf, priority 1975, dated 1978).
Structures can show the parent of a compound that is named as a salt.

Assays:
[1] = acute toxicity, intraperitoneal, mice (DL50); conditions: mouse, in vivo, ip, suspension in carboxymethylcellulose, observed one week, read-out: DL50 (average lethal dose)
Experimental: The acute toxicity was determined on groups of 10 mice weighing between 18 and 22 g and the product was administered intraperitoneally as a suspension in carboxymethylcellulose.

[2] = test system: plasmatic free fatty acids; test: Antilipolytic activity: determination of plasmatic free fatty acids in the blood; type: in vivo, Male rats of the Sprague Dawley SPF strain; conditions: oral; for ED50: Rattus norvegicus, 1 h, starved rats, one hour after administration, read-out: DA50 (dose which reduced by 50% the level of free fatty acids as compared to controls); for reduction of the amount of plasmatic free fatty acids in the blood (in words): rats
Experimental: B. Antilipolytic Activity: Determination of Plasmatic Free Fatty Acids in the Blood
Male rats of the Sprague Dawley SPF strain weighing about 180 to 200 gm were starved for 24 hours and then were given the product orally. One hour after the oral administration, the animals were killed by carotidienne section and samples of the blood were obtained to determine the amount of free fatty acids. The extraction of the free fatty acids was made by the technique of Dole [J. Clin. Invest., Vol. 38 (1959), p. 1544-1554] as modified by Trout et al. [J. Lipid. Res., Vol. 1 (1960) p. 199-202]. The plasmatic extract freed of phospholipids was colorimetrically examined by the method of Anthonis [J. Lipid. Res., Vol. 6 (1965), p. 307-312]. Under these test conditions, the dose of the products which reduced by 50% the level of free fatty acids in the treated animals as compared to the controls (DA50) was determined.

glycemia = test: Hypoglycemiant activity: determination of glycemia; type: in vivo, Male rats of the Sprague Dawley SPF strain; conditions: oral, starved rats, one hour
Experimental: C. Hypoglycemiant Activity: Determination of Glycemia
Male rats of the Sprague Dawley SPF strain weighing between 180 and 200 gm were starved for 24 hours and were then given the test product orally. One hour after the administration, the animals were killed by carotidienne section and blood samples were taken to determine the glycemia. The seric extract was treated by the enzymatic (glucose-oxydase) method of Boehringer and the percent of reduction of glycemia as compared to the controls was determined for each dose of the product administered.

SMILES | LD50 at 168 h [1] [mg/kg] | ED50 [2] [mg/kg] | reduction of the amount of plasmatic free fatty acids in the blood (in words) [2] | Percentage of reduction of the glycemia (glycemia; 5 mg/kg) [%] | Percentage of reduction of the glycemia (glycemia; 10 mg/kg) [%] | Percentage of reduction of the glycemia (glycemia; 20 mg/kg) [%]
Cc1ncc(CN(C)C)s1 [Example 3, maleate of N,N,2-trimethyl-5-thiazole-methane-amine] | ~450 | ~5 | clear reduction | – | – | –
Cc1ncc(CN(CCO)CCO)s1 [Example 4, dinitrate of N,N-bis-(β-hydroxyethyl)-2-methyl-5-thiazole-methane-amine] | ~900 | – | – | – | – | –
Cc1ncc(CN)s1 [Example 1, hemisuccinate of 2-methyl-5-thiazole-methane-amine] | > 1000 | ~0.8 | clear reduction | – | – | –
CNCc1cnc(C)s1 [Example 2, acetate of N,2-dimethyl-5-thiazole-methane-amine] | ~700 | ~4 | clear reduction | – | – | –
CCCc1ncc(CN)s1 [Example 5, hemisuccinate of 2-n-propyl-5-thiazole-methane-amine] | ~650 | ~8 | clear reduction | -12 | -14 | -27
Cc1ncc(CN2CCN(C)CC2)s1 [Example 7, 2-methyl-5-(4-methyl-piperazin-1-yl-methyl)-thiazole] | ~500 | – | – | – | – | –
